Assays:
[1] = molecular target: T1, human cannabinoid receptor type 1 (Homo sapiens, UniProt P21554); assay: Human CB1 Radioligand Binding Assay (basis of selectivity CB2 vs. CB1)
T1 construct: purchased Perkin Elmer RBHCB1M; host or cells: HEK 293 EBNA cells
Outline: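 Filtration competition binding against [3H] CP-55,940 at its Kd, using membranes from HEK 293 EBNA cells expressing human CB1; 90 minutes at 30° C in 50 mM Tris-HCl pH 7.4, 2.5 mM EDTA, 5 mM MgCl2, 5.0 mg/ml BSA, 1% DMSO. Single point 10 uM or dose-response; 100 nM CP-55,940 defined 100% efficacy.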

[2] = molecular target: T2, Human CB2 (Homo sapiens, UniProt P34972); assay: Human CB2 Radioligand Binding Assay; details: membranes from stably transfected CHO CB2 cells; competition with [3H] CP-55,940; read-out: CB2 Ligand Binding Asssay
T2 construct: expressed in transfected cells; membrane preparation
T2 sequence (P34972 whole entry): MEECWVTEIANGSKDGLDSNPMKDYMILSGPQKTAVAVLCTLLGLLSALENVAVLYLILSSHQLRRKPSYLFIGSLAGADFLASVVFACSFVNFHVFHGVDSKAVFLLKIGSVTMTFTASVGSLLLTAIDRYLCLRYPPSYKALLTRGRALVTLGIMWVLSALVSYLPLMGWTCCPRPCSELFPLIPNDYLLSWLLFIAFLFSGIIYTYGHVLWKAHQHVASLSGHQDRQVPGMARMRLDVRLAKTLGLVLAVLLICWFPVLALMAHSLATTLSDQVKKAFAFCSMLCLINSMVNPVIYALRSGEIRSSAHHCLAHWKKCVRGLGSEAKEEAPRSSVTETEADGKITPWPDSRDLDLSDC
Outline: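 Filtration competition against [3H]CP-55,940 at its Kd on membranes from CHO cells stably expressing human CB2; compounds at 10 uM single point or dose-response, 1% DMSO. Buffer 50 mM Tris-HCl pH 7.4, EGTA, MgCl2, 5.0 mg/ml BSA; 90 min at 30° C, scintillation read; 100 nM CP-55,940 = 100%.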

T1 sequence (P21554 whole entry): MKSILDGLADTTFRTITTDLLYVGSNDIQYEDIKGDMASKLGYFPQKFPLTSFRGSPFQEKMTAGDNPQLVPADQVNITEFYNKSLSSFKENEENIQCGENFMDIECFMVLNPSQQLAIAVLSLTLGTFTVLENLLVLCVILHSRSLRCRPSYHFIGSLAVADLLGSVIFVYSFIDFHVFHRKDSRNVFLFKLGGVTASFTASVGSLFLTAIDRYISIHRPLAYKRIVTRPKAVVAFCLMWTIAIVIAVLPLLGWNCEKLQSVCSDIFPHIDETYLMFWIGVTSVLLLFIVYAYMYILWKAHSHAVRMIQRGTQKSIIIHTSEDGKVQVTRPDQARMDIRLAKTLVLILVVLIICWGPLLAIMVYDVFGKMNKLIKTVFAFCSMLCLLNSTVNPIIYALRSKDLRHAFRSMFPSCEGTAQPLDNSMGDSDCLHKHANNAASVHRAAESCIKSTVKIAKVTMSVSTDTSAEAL

SMILES	Selectivity, CB2 vs. CB1 [1]	IC50 (radioligand displacement) [2] [µM]
CC(C)(C)c1ccc(C2c3cccn3CCCN2C(=O)Cc2c(F)cccc2F)cc1 (centres unmarked) [Example 51, 1-(1-(4-tert-Butylphenyl)-4,5-dihydro-1H-pyrrolo[1,2-a][1,4]diazepin-2(3H)-yl)-2-(2,6-difluorophenyl)ethanone]	− (− indicates < 10-fold)	> 1
CC(C)(C)c1ccc(C2c3cccn3CCCN2C(=O)CN2CCOCC2)cc1 (centres unmarked) [Example 52, 1-(1-(4-tert-Butylphenyl)-4,5-dihydro-1H-pyrrolo[1,2-a][1,4]diazepin-2(3H)-yl)-2-morpholinoethanone]	− (− indicates < 10-fold)	> 1
CC(C)(C)c1ccc(C2c3cccn3CCCN2c2nc3ccccc3o2)cc1 (centres unmarked) [Example 53, 2-(1-(4-tert-Butylphenyl)-4,5-dihydro-1H-pyrrolo[1,2-a][1,4]diazepin-2(3H)-yl)benzo[d]oxazole]	− (− indicates < 10-fold)	> 1
CC(C)(C)c1ccc(Cc2ccc3n2CCCN3c2nc3ccccc3o2)cc1 [Example 54, 2-(6-(4-tert-Butylbenzyl)-3,4-dihydropyrrolo[1,2-a]pyrimidin-1(2H)-yl)benzo[d]oxazole]	− (− indicates < 10-fold)	> 1
O=C(Nc1ccc(C(F)(F)F)cc1)C1=C(c2ccccc2)c2cccn2CCC1 [Example 74, (E)-9-Phenyl-N-(4-(trifluoromethyl)phenyl)-6,7-dihydro-5H-pyrrolo[1,2-a]azepine-8-carboxamide]	− (− indicates < 10-fold)	> 1
O=C(Nc1ccc(F)c(F)c1)C1=C(c2ccccc2)c2cccn2CCC1 [Example 75, (E)-N-(3,4-Difluorophenyl)-9-phenyl-6,7-dihydro-5H-pyrrolo[1,2-a]azepine-8-carboxamide]	− (− indicates < 10-fold)	< 1
CC(C)(C)c1ccc(C2=C(C(=O)Nc3ccc(Cl)cc3)CCCn3cncc32)cc1 [Example 77, (E)-9-(4-tert-Butylphenyl)-N-(4-chlorophenyl)-6,7-dihydro-5H-imidazo[1,5-a]azepine-8-carboxamide]	− (− indicates < 10-fold)	> 1
CC(C)(C)c1ccc(C2=C(C(=O)Nc3ccc(Cl)c(Cl)c3)CCCn3cncc32)cc1 [Example 79, (E)-9-(4-tert-Butylphenyl)-N-(3,4-dichlorophenyl)-6,7-dihydro-5H-imidazo[1,5-a]azepine-8-carboxamide]	− (− indicates < 10-fold)	< 1
CC(C)(C)c1ccc(CC2=C(C(=O)Nc3ccc(Cl)cc3)CCCn3cncc32)cc1 [Example 82, (E)-9-(4-tert-Butylbenzyl)-N-(4-chlorophenyl)-6,7-dihydro-5H-imidazo[1,5-a]azepine-8-carboxamide]	− (− indicates < 10-fold)	> 1

Further lines, results first:

Selectivity, CB2 vs. CB1 [1]	IC50 (radioligand displacement) [2] [µM]	SMILES
− (− indicates < 10-fold)	> 1	CC(C)(C)c1ccc(C2=C(C(=O)Nc3ccc(F)cc3F)CCn3cccc32)cc1 [Example 56, 8-(4-tert-Butylphenyl)-N-(2,4-difluorophenyl)-5,6-dihydroindolizine-7-carboxamide]
− (− indicates < 10-fold)	> 1	CC(C)(C)c1ccc(C2=C(C(=O)Nc3ccc(Cl)cc3Cl)CCn3cccc32)cc1 [Example 57, 8-(4-tert-Butylphenyl)-N-(2,4-dichlorophenyl)-5,6-dihydroindolizine-7-carboxamide]
− (− indicates < 10-fold)	> 1	CC(C)(C)c1ccc(C2=C(C(=O)Nc3ccc(OC(F)(F)F)cc3)CCn3cccc32)cc1 [Example 58, 8-(4-tert-Butylphenyl)-N-(4-(trifluoromethoxy)phenyl)-5,6-dihydroindolizine-7-carboxamide]
+ (+ indicates > 10-fold)	< 1	CC(C)(C)c1ccc(C2=C(C(=O)Nc3ccc(F)c(F)c3)CCn3cccc32)cc1 [Example 59, 8-(4-tert-Butylphenyl)-N-(3,4-difluorophenyl)-5,6-dihydroindolizine-7-carboxamide]
− (− indicates < 10-fold)	< 1	CC(C)(C)c1ccc(C2=C(C(=O)Nc3ccc(Cl)cc3)CCn3cccc32)cc1 [Example 60, 8-(4-tert-Butylphenyl)-N-(4-chlorophenyl)-5,6-dihydroindolizine-7-carboxamide]
− (− indicates < 10-fold)	< 1	CC(C)(C)c1ccc(C2=C(C(=O)Nc3ccc(F)cc3F)CCCn3cccc32)cc1 [Example 62, (E)-9-(4-tert-Butylphenyl)-N-(2,4-difluorophenyl)-6,7-dihydro-5H-pyrrolo[1,2-a]azepine-8-carboxamide]
− (− indicates < 10-fold)	< 1	CC(C)(C)c1ccc(C2=C(C(=O)Nc3ccc(Cl)cc3Cl)CCCn3cccc32)cc1 [Example 63, (E)-9-(4-tert-Butylphenyl)-N-(2,4-dichlorophenyl)-6,7-dihydro-5H-pyrrolo[1,2-a]azepine-8-carboxamide]
− (− indicates < 10-fold)	< 1	CC(C)(C)c1ccc(C2=C(C(=O)Nc3ccc(C(F)(F)F)cc3)CCCn3cccc32)cc1 [Example 64, (E)-9-(4-tert-Butylphenyl)-N-(4-(trifluoromethyl)phenyl)-6,7-dihydro-5H-pyrrolo[1,2-a]azepine-8-carboxamide]
+ (+ indicates > 10-fold)	< 1	CC(C)(C)c1ccc(C2=C(C(=O)Nc3ccc(F)c(F)c3)CCCn3cccc32)cc1 [Example 65, (E)-9-(4-tert-Butylphenyl)-N-(3,4-difluorophenyl)-6,7-dihydro-5H-pyrrolo[1,2-a]azepine-8-carboxamide]
+ (+ indicates > 10-fold)	< 1	CC(C)(C)c1ccc(C2=C(C(=O)Nc3ccc(Cl)cc3)CCCn3cccc32)cc1 [Example 66, (E)-9-(4-tert-Butylphenyl)-N-(4-chlorophenyl)-6,7-dihydro-5H-pyrrolo[1,2-a]azepine-8-carboxamide]
− (− indicates < 10-fold)	> 1	O=C(Nc1ccc(F)cc1F)C1=C(c2ccccc2)c2cccn2CCC1 [Example 73, (E)-N-(2,4-Difluorophenyl)-9-phenyl-6,7-dihydro-5H-pyrrolo[1,2-a]azepine-8-carboxamide]
− (− indicates < 10-fold)	> 1	CC(C)(C)c1ccc(C2=C(C(=O)Nc3ccc(F)cc3F)CCCn3cncc32)cc1 [Example 78, ((E)-9-(4-tert-Butylphenyl)-N-(2,4-difluorophenyl)-6,7-dihydro-5H-imidazo[1,5-a]azepine-8-carboxamide]
− (− indicates < 10-fold)	> 1	CC(C)(C)c1ccc(C2=C(C(=O)Nc3ccc(Cl)cc3Cl)CCCn3cncc32)cc1 [Example 80, (E)-9-(4-tert-Butylphenyl)-N-(2,4-dichlorophenyl)-6,7-dihydro-5H-imidazo[1,5-a]azepine-8-carboxamide]
